Test results published in ChEMBL document CHEMBL1201862, “PubChem BioAssay data set” (2004).
One block for each molecule: values may come before it. Active and inactive are the calls of the source.

Legend:
Candida albicans = experiment: growth inhibition of resistant C. albicans, dose response, CaCi-8 strain, fluconazole, dry powder, set 4 (AID 488950); format: functional, organism-based
Jurkat = experiment: SAR Analysis of small molecule inhibitors of […] specific antigen receptor-induced NF-kB activation in a Jurkat cell line using a luminescence assay - Set 3. [Related pubchem assays (depositor defined):AID435022, AID435025, AID465]; format: functional, cell-based; details: Homo sapiens
HEK293 [1] = experiment: SAR Analysis of small molecule inhibitors of B-cell specific antigen receptor-induced NF-kB activation in a HEK-293T cell line using a luminescence assay - Set 2. [Related pubchem assays (depositor defined):AID435022, AID435025, AID489021]; format: functional, cell-based; details: Homo sapiens
HEK293 [2] = experiment: cytotoxicity in HEK293T NF-kB-Luc cells, SAR follow-up, cytotoxicity control for NF-kB activator project, cell-based, resazurin fluorescence (AID 493251); format: functional; details: Homo sapiens
Vero = Vero cell cytotoxicity, cytotoxicity control for flavivirus capping enzyme inhibitors (AID 588742); format: functional; details: Chlorocebus sabaeus
Genome polyprotein = Genome polyprotein (dengue virus type 2, UniProt P29990); experiment: Dengue-2 NS5 methyltransferase inhibitors, primary screen, biochemical, confirmation dose response (AID 588689); format: functional
Genome polyprotein, sequence (P29990 2492-3391 limits assumed): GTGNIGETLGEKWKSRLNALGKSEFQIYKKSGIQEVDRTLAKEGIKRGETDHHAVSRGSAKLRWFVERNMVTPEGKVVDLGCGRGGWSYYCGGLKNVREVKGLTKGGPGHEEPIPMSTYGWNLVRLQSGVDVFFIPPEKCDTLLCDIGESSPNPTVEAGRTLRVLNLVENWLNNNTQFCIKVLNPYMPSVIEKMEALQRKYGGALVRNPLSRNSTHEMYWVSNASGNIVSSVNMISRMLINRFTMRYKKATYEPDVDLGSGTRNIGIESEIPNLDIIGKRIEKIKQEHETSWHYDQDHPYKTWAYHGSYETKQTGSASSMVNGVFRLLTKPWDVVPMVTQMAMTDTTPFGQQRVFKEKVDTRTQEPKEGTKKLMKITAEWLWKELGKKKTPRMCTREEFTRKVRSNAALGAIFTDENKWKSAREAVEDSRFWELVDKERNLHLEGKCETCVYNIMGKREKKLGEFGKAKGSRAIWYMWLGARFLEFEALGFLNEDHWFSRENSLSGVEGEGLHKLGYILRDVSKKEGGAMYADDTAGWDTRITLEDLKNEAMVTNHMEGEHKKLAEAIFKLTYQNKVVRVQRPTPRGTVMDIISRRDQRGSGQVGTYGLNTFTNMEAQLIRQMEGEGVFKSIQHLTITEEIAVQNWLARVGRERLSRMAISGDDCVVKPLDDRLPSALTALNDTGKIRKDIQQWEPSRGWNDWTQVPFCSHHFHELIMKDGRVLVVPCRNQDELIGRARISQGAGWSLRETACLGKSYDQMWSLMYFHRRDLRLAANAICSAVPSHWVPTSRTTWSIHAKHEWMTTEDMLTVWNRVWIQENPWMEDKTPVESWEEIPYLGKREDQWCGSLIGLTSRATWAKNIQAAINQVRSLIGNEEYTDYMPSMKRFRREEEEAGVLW

Structure (SMILES): O=C(c1ccc(Cl)cc1)N1CCN(c2cccc(C(F)(F)F)n2)CC1
AC50 (Candida albicans): 172 µM (active)

Structure (SMILES): CCOc1ccc(-c2nc(CSCC(=O)NC(C)C)c(C)o2)cc1
IC50 (Jurkat): > 80 µM (inactive) | IC50 (HEK293 [1]): 61.7 µM (inactive) | IC50 (HEK293 [2]): > 80 µM (inactive)

IC50 (Genome polyprotein): 19.1 µM (active)
Structure (SMILES): O=S(=O)(N=C1C=CC(=NS(=O)(=O)c2ccccc2)c2ccccc21)c1ccccc1
CC50 (Vero): 34.1 µM (active)
